Measurements published in patent US10188615B2, “Alkoxy compounds for disease treatment” (Acucela Inc., priority 2007, dated 2019).
Where two headings read alike, the source gives them in different places.

What was measured:
isomerase = isomerase (Mus musculus (Mouse), UniProt Q91ZQ5); assay: In vivo murine isomerase assay (recovery of 11-cis-retinal after photobleaching); parameters: species or system mice; conditions: for inhibition at 1 mg/kg: read-out: % Inhibition 1 mg/kg, 4 h
Description: The capability of compounds described herein to inhibit isomerase was determined by an in vivo murine isomerase assay. Brief exposure of the eye to intense light (“photobleaching” of the visual pigment or simply “bleaching”) is known to photo-isomerize almost all 11-cis-retinal in the retina. The recovery of 11-cis-retinal after bleaching can be used to estimate the activity of isomerase in vivo. Delayed recovery, as represented by lower 11-cis-retinal oxime levels, indicates inhibition of isomerization reaction.
The mice were allowed to recover 2 hours in the dark. The animals were then sacrificed by carbon dioxide inhalation. Retinoids were extracted from the eye and the regeneration of 11-cis-retinal was assessed at various time intervals.
After the mice were sacrificed, the eyes were immediately removed and placed in liquid nitrogen for storage.
The eyes were placed in 500 μL of bis-tris propane buffer (10 mM, pH ˜7.3) and 20 µL of 0.8M hydroxile amine (pH-7.3). The eyes were cut up into small pieces with small iris scissors and then thoroughly homogenized at 30000 rpm with a mechanical homogenizer (Polytron PT 1300 D) in the tube until no visible tissue remained. 500 μL of methanol and 500 μL of heptane were added to each tube. The tubes were attached to a vortexer so that the contents were mixed thoroughly for 15 minutes in room temperature. The organic phase was separated from the aqueous phase by centrifugation for 10 min at 13K rpm, 4° C. 240 μL of the solution from the top layer (organic phase) was removed and transferred to clean 300 μl glass inserts in HPLC vials using glass pipette and the vials were crimped shut tightly.
Loading volume for each sample is 100 μl; detection wavelength is 360 nm. The area under the curve for 11-cis retinal oxime was calculated by Agilent Chemstation software and was recorded manually. Data processing was performed using Prizm software.
Positive control mice (no compound administered) were sacrificed fully dark-adapted and the eye retinoids analyzed. Light (bleached) control mice (no compound administered) were sacrificed and retinoids isolated and analyzed immediately after light treatment.
Mice were sacrificed 2 hours after bleaching, eyes were enucleated, and retinoid content was analyzed by HPLC.
Recovery control mice (vehicle-only treated) were light-treated and left to recover for 2 hours in the dark before sacrifice and analysis. Light control mice (vehicle only treated) were sacrificed for analysis immediately after photo-bleaching.

visual cycle isomerase = visual cycle isomerase (Bos taurus (Bovine), UniProt Q28175); assay: Bovine in vitro isomerase inhibition assay (RPE microsome membranes)
Sequence of visual cycle isomerase (Q28175 2-533): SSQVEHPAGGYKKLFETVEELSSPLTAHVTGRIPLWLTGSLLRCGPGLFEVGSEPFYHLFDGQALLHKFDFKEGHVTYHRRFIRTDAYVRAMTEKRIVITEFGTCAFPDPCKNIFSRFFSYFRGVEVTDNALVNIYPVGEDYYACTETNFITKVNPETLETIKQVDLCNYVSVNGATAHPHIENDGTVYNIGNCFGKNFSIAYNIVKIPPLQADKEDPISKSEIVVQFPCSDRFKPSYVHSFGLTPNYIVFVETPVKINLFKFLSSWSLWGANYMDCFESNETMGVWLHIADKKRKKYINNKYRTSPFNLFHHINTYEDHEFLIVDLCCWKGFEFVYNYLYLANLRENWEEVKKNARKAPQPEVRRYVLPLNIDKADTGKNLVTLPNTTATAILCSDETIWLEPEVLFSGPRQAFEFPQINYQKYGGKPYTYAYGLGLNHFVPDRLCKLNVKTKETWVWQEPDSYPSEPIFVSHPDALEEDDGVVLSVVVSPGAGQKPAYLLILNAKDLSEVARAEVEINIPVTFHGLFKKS
Description: The capability of compounds disclosed herein to inhibit the activity of a visual cycle isomerase was determined.
All tests were performed in duplicate.

[1] = molecular target: recombinant human RPE65 and LRAT (Homo sapiens (Human), UniProt Q16518); assay: Human in vitro isomerase inhibition assay; format: biochemical; conditions: Human in vitro Inhibition data; inhibition of 11-cis-retinol formation; HEK293 homogenate, all-trans-retinol about 20 μM, 37° C., one hour; given as ranges
Sequence of recombinant human RPE65 and LRAT (Q16518 2-533): as the sequence (Q28175 2-533) above, with S2I, I135V, V154I, I299L, H320N, E321G, G426C counted along it
Description: The concentration dependent effect of the compounds disclosed herein on the retinol isomerization reaction was also evaluated with a recombinant human enzyme system. […] A homogenate of HEK293 cell clone expressing recombinant human RPE65 and LRAT were the source of the visual enzymes, and exogenous all-trans-retinol (about 20 μM) was used as the substrate. Recombinant human CRALBP (about 80 ug/mL) was added to enhance the formation of 11 cis-retinal. The 200 μL Bis-Tris Phosphate buffer (10 mM, pH 7.2) based reaction mixture also contains 0.5% BSA, and 1 mM NaPPi. In this assay, the reaction was carried out at 37° C. in duplicates for one hour and was terminated by addition of 300 μL methanol. The amount of reaction product, 11-cis-retinol, was measured by HPLC analysis following Heptane extraction of the reaction mixture. […] The ability of the numerous compounds disclosed herein to inhibit isomerization reaction is quantified and the respective IC50 value is determined.

[2] = Bovine in vitro Inhibition data, inhibition of 11-cis retinol formation, bovine RPE microsomes, 20 μM all-trans retinol, 37° C., 30 minutes, given as ranges

Sequence of isomerase (Q91ZQ5 whole entry): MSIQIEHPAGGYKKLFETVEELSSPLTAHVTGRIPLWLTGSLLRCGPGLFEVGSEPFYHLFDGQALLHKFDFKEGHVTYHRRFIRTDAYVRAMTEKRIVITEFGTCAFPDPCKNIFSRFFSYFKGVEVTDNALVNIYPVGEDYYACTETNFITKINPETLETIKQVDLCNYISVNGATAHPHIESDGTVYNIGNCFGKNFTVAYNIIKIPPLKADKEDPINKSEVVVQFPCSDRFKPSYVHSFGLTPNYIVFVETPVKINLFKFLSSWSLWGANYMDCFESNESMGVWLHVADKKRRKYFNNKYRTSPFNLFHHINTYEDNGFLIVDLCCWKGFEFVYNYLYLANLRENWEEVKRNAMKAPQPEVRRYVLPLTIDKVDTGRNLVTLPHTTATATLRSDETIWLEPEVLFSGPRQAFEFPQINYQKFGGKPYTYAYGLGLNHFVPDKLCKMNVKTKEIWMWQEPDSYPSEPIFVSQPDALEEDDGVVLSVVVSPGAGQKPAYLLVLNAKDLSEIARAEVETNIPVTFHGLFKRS

Row | Structure (SMILES) | inhibition at 1 mg/kg (isomerase) [%] | IC50 [1] [nM] | also measured
1 | COCCOCCOCC(=O)NCCC(O)c1cccc(OCC2CCCCC2)c1 (centres unmarked) [Example 77, N-(3-(3-(Cyclohexylmethoxy)phenyl)-3-hydroxypropyl)-2-(2-(2-methoxyethoxy)ethoxy)acetamide] | 22 |  | 
2 | CCC(CC)COc1cccc(CCCN)c1 [Example 3, 3-(3-(2-Ethylbutoxy)phenyl)propan-1-amine] | 12 |  | IC50 (visual cycle isomerase; [2]): ≤ 1000 nM
3 | NCCOc1cccc(OCc2ccccc2)c1 [Example 8, 2-(3-(Benzyloxy)phenoxy)ethanamine] |  |  | IC50 (visual cycle isomerase): 1000 to 10000 nM
4 | NCCCc1cccc(OCC2(O)CCCCC2)c1 [Example 10, 1-((3-(3-Aminopropyl)phenoxy)methyl)cyclohexanol] |  |  | IC50 (visual cycle isomerase; [2]): ≤ 1000 nM
5 | NCCC(O)c1cccc(OCC2CCC(F)(F)CC2)c1 (centres unmarked) [Example 169, 3-Amino-1-(3-((4,4-difluorocyclohexyl)methoxy)phenyl)propan-1-ol] |  | ≤ 10 | 
6 | NCCC(O)c1cccc(OCC2CCC2)c1 (centres unmarked) [Example 34, 3-Amino-1-(3-(cyclobutylmethoxy)phenyl)propan-1-ol] |  | ≤ 10 | 
7 | NCCCc1cccc(OCc2ccc(Cl)cc2)c1 [Example 120, 3-(3-(4-Chlorobenzyloxy)phenyl)propan-1-amine] |  |  | IC50 (μM) [1]: No detectable
8 | CCC(CC)COc1cccc(C(O)CCN)c1 (centres unmarked) [Example 45, 3-Amino-1-(3-(2-ethylbutoxy)phenyl)propan-1-ol] | 98 | ≤ 10 | 
9 | C[C@H](CN)[C@@H](O)c1cccc(OCC2CCCC2)c1 [Example 56, (1R,2R)-3-Amino-1-(3-(cyclopentylmethoxy)phenyl)-2-methylpropan-1-ol] | 10 | ≤ 10 | 
10 | NCC[C@@H](O)c1cccc(OC[C@H]2CC[C@H](O)CC2)c1 [Example 172, (1,4-Trans)-4-((3-((R)-3-Amino-1-Hydroxypropyl)Phenoxy)Methyl)Cyclohexanol] |  | ≤ 10 | 
11 | NCCOc1cccc(OCCc2ccccc2)c1 [Example 47, 2-(3-Phenethoxyphenoxy)ethanamine] | 6 |  | 
12 | NCC[C@@H](O)c1cccc(OC[C@H]2CCCC[C@H]2O)c1 [Example 176, (1,2-cis)-2-((3-((R)-3-Amino-1-hydroxypropyl)phenoxy)methyl)cyclohexanol] |  | ≤ 10 | 
13 | NCCS(=O)(=O)c1cccc(OCC2CCCCC2)c1 [Example 125, 2-(3-(Cyclohexylmethoxy)phenylsulfonyl)ethanamine] | 4 |  | 
14 | NCCC(O)c1cccc(OCC2CC3CCC2C3)c1 (centres unmarked) [Example 48, 3-Amino-1-(3-(bicyclo[2.2.1]heptan-2-ylmethoxy)phenyl)propan-1-ol] | 47 | ≤ 10 | 
15 | NCCOc1cccc(OCC2CCCCC2)c1 [Example 7, 2-(3-(Cyclohexylmethoxy)phenoxy)ethanamine] | 17 |  | IC50 (visual cycle isomerase; [2]): ≤ 1000 nM; ED50 (isomerase; in vivo inhibition of isomerase, Table 10): 4.2 mg/kg
16 | NCCCc1cccc(OCC2CCCCCC2)c1 [Example 14, 3-(3-(Cycloheptylmethoxy)phenyl)propan-1-amine] | 89 |  | IC50 (visual cycle isomerase; [2]): ≤ 1000 nM
17 | CCCC(CCC)COc1cccc(CCCN)c1 [Example 2, 3-(3-(2-Propylpentyloxy)phenyl)propan-1-amine] | 1 |  | IC50 (visual cycle isomerase; [2]): ≤ 1000 nM
18 | NCCOc1cccc(OCCO)c1 [Example 141, 2-(3-(2-Aminoethoxy)phenoxy)ethanol] |  |  | IC50 (μM) [1]: No detectable
19 | NCCOc1cccc(OCC2(O)CCCCCC2)c1 [Example 18, 1-((3-(2-Aminoethoxy)Phenoxy)Methyl)Cycloheptanol] |  |  | IC50 (visual cycle isomerase): 1000 to 10000 nM
20 | C[C@H](CN)[C@@H](O)c1cccc(OCC2CCCCC2)c1 [Example 74, (1R,2R)-3-Amino-1-(3-(Cyclohexylmethoxy)Phenyl)-2-Methylpropan-1-Ol] | 6 | ≤ 10 | 

Row | Structure (SMILES) | inhibition at 1 mg/kg (isomerase) [%] | IC50 [1] [nM] | also measured
21 | NCC[C@@H](O)c1cccc(OC[C@@H]2CCCC[C@H]2O)c1 [Example 175, (1,2-trans)-2-((3-((R)-3-Amino-1-hydroxypropyl)phenoxy)methyl)cyclohexanol] |  | ≤ 10 | 
22 | NCCC(O)c1cccc(OCC2CCCC2)c1 (centres unmarked) [Example 35, 3-Amino-1-(3-(Cyclopentylmethoxy)Phenyl)Propan-1-Ol] | 95 | ≤ 10 | 
23 | C[C@@H](CN)[C@H](O)c1cccc(OCC2CCCCC2)c1 [Example 73, (1S,2S)-3-Amino-1-(3-(Cyclohexylmethoxy)Phenyl)-2-Methylpropan-1-Ol] | 23 |  | 
24 | NCCC(=O)c1cccc(OCC2CCCCCC2)c1 [Example 16, 3-amino-1-(3-(cycloheptylmethoxy)phenyl)propan-1-one] | 60 |  | IC50 (visual cycle isomerase; [2]): ≤ 1000 nM
25 | CCC(CC)COc1cccc([C@H](O)[C@H](C)CN)c1 [Example 72, (1R,2R)-3-Amino-1-(3-(2-ethylbutoxy)phenyl)-2-methylpropan-1-ol] | 13 | ≤ 10 | 
26 | CCCCCOc1cccc(C(O)CCN)c1 (centres unmarked) [Example 87, 3-Amino-1-(3-(pentyloxy)phenyl)propan-1-ol] |  | ≤ 10 | 
27 | CC(=O)NCCC(O)c1cccc(OCC2CCCCC2)c1 (centres unmarked) [Example 19, N-(3-(3-(cyclohexylmethoxy)phenyl)-3-hydroxypropyl)acetamide] |  |  | IC50 (visual cycle isomerase): 1000 to 10000 nM
28 | NCCOc1cccc(OCC2CCCCCC2)c1 [Example 9, 2-(3-(Cycloheptylmethoxy)phenoxy)ethanamine] | 6 |  | IC50 (visual cycle isomerase; [2]): ≤ 1000 nM
29 | NCCCc1cccc(OCC2(O)CCCCCC2)c1 [Example 11, 1-((3-(3-aminopropyl)phenoxy)methyl)cycloheptanol] |  |  | IC50 (visual cycle isomerase; [2]): ≤ 1000 nM
30 | CCC(O)(CC)COc1cccc(C(O)CCN)c1 (centres unmarked) [Example 30, 3-((3-(3-Amino-1-hydroxypropyl)phenoxy)methyl)pentan-3-ol] | 57 | ≤ 10 | 
31 | CN(C)CCC(=O)c1cccc(OCC2CCCCC2)c1 [Example 182, 1-(3-(Cyclohexylmethoxy)phenyl)-3-(dimethylamino)propan-1-one] |  | > 10000 | 
32 | COc1ccc(COc2cccc(CCCN)c2)cc1 [Example 121, 3-(3-(4-Methoxybenzyloxy)phenyl)propan-1-amine] |  |  | IC50 (μM) [1]: No detectable
33 | COCCCCOc1cccc(C(O)CCN)c1 (centres unmarked) [Example 88, 3-Amino-1-(3-(4-methoxybutoxy)phenyl)propan-1-ol] | 78 | ≤ 10 | 
34 | Cc1ccc(COc2cccc(CCCN)c2)cc1 [Example 119, 3-(3-(4-Methylbenzyloxy)phenyl)propan-1-amine] |  |  | IC50 (μM) [1]: No detectable
35 | NCC[C@@H](O)c1cccc(OC[C@H]2CC[C@@H](O)CC2)c1 [Example 171, (1,4-Cis)-4-((3-((R)-3-Amino-1-Hydroxypropyl)Phenoxy)Methyl)Cyclohexanol] |  | ≤ 10 | 
36 | CC(C)CCOc1cccc(C(O)CCN)c1 (centres unmarked) [Example 107, 3-Amino-1-(3-(isopentyloxy)phenyl)propan-1-ol] | 62 |  | 
37 | NCC(O)Cc1cccc(OCC2CCCCC2)c1 (centres unmarked) [Example 6, 1-Amino-3-(3-(cyclohexylmethoxy)phenyl)propan-2-ol] |  |  | IC50 (visual cycle isomerase; [2]): ≤ 1000 nM
38 | N=C(N)CC(O)c1cccc(OCC2CCCCC2)c1 (centres unmarked) [Example 130, 3-(3-(Cyclohexylmethoxy)phenyl)-3-hydroxypropanimidamide] | 3 |  | 
39 | CCCC(CCC)COc1cccc([C@H](O)[C@H](C)CN)c1 [Example 55, (1R,2R)-3-Amino-2-methyl-1-(3-(2-propylpentyloxy)phenyl)propan-1-ol] | 82 | ≤ 10 | 
40 | COC(=O)c1cc(CCCN)cc(OCC2CCCCC2)c1 [Example 170, Methyl 3-(3-aminopropyl)-5-(cyclohexylmethoxy)benzoate] |  | > 10000 | 
